These molecules were tested on broad leaf weeds (Lindernia pyxidaria and Monochoria vaginalis) (assay: Test Example 1: herbicidal effect test by treatment of rice paddy soil (immediately after seeding)). Settings: Lindernia pyxidaria, 120 g/10a active ingredient, dry weight vs untreated area, 14 days after treatment.
Format: in vivo
Method in brief: (§1)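 Pre-emergence paddy water application, 120 g a.i./10 ares, applied immediately post-seeding into ~3 cm flood; glasshouse; duplicate pots; dry weight at 14 d → % inhibition = (1 − treated/untreated) × 100.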

Structure (SMILES) | Herbicidal rate (%) Lindernia pyxidaria
CCC(C)n1oc(=O)c(Cc2ccccc2N(C(=O)c2ccc(C)cc2)S(=O)(=O)C(F)(F)F)c1C (centres unmarked) [Compound 1-494] | 90%
COCC(C)n1oc(=O)c(Cc2ccccc2N(C(=O)Oc2ccccc2)S(=O)(=O)C(F)(F)F)c1C (centres unmarked) [Compound 1-765] | 90%

Same assay, conditions: Monochoria vaginalis, 120 g/10a active ingredient, dry weight vs untreated area, 14 days after treatment

Structure (SMILES) | Herbicidal rate (%) Monochoria vaginalis
CCC(C)n1oc(=O)c(Cc2ccccc2N(C(=O)c2ccc(C)cc2)S(=O)(=O)C(F)(F)F)c1C (centres unmarked) [Compound 1-494] | 90%
COCC(C)n1oc(=O)c(Cc2ccccc2N(C(=O)Oc2ccccc2)S(=O)(=O)C(F)(F)F)c1C (centres unmarked) [Compound 1-765] | 90%

The molecules below were run on Echinochloa crus-galli in the same assay as above. Settings: 120 g/10a active ingredient, dry weight vs untreated area, 14 days after treatment.
Format: in vivo
Method in brief: as §1

Structure (SMILES) | Herbicidal rate (%) Echinochloa crus-galli
CCC(C)n1oc(=O)c(Cc2ccccc2N(C(=O)c2ccc(C)cc2)S(=O)(=O)C(F)(F)F)c1C (centres unmarked) [Compound 1-494] | 90%
COCC(C)n1oc(=O)c(Cc2ccccc2N(C(=O)Oc2ccccc2)S(=O)(=O)C(F)(F)F)c1C (centres unmarked) [Compound 1-765] | 90%

The molecules below were run on Scirpus juncoides in the same assay as above. Settings: 120 g/10a active ingredient, dry weight vs untreated area, 14 days after treatment.
Format: in vivo
Method in brief: as §1

Structure (SMILES) | Herbicidal rate (%) Scirpus juncoides
CCC(C)n1oc(=O)c(Cc2ccccc2N(C(=O)c2ccc(C)cc2)S(=O)(=O)C(F)(F)F)c1C (centres unmarked) [Compound 1-494] | 90%
COCC(C)n1oc(=O)c(Cc2ccccc2N(C(=O)Oc2ccccc2)S(=O)(=O)C(F)(F)F)c1C (centres unmarked) [Compound 1-765] | 90%

Each molecule was assayed on Echinochloa crus-galli (assay: Test Example 3: herbicidal effect test by treatment of dry field farming soil (one day after seeding)). Settings: 120 g/10a active ingredient, evaluated 14 days after treatment.
Format: in vivo
Method in brief: (§2)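 Alluvial dry-field soil in pots, top 1 cm mixed with 20 seeds per weed species. One day after seeding, the water-diluted emulsion was sprayed onto the soil surface at 100 L per 10 ares (120 g active ingredient per 10 ares). Duplicate pots; herbicidal rate (%) from plant dry weight versus untreated, 14 days after treatment.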

Structure (SMILES) | herbicidal rate, Echinochloa crus-galli
CCC(C)n1oc(=O)c(Cc2ccccc2N(C(=O)c2ccc(C)cc2)S(=O)(=O)C(F)(F)F)c1C (centres unmarked) [Compound 1-494] | 90%
COCC(C)n1oc(=O)c(Cc2ccccc2N(C(=O)Oc2ccccc2)S(=O)(=O)C(F)(F)F)c1C (centres unmarked) [Compound 1-765] | 90%

The molecules below were run on Amaranthus viridis in the same assay as above. Settings: 120 g/10a active ingredient, evaluated 14 days after treatment.
Format: in vivo
Method in brief: as §2

Structure (SMILES) | herbicidal rate, Amaranthus viridis
CCC(C)n1oc(=O)c(Cc2ccccc2N(C(=O)c2ccc(C)cc2)S(=O)(=O)C(F)(F)F)c1C (centres unmarked) [Compound 1-494] | 90%
COCC(C)n1oc(=O)c(Cc2ccccc2N(C(=O)Oc2ccccc2)S(=O)(=O)C(F)(F)F)c1C (centres unmarked) [Compound 1-765] | 90%

What follows are molecules tested on Chenopodium album in the same assay as above. Settings: 120 g/10a active ingredient, evaluated 14 days after treatment.
Format: in vivo
Method in brief: as §2

Structure (SMILES) | herbicidal rate, Chenopodium album
CCC(C)n1oc(=O)c(Cc2ccccc2N(C(=O)c2ccc(C)cc2)S(=O)(=O)C(F)(F)F)c1C (centres unmarked) [Compound 1-494] | 90%
COCC(C)n1oc(=O)c(Cc2ccccc2N(C(=O)Oc2ccccc2)S(=O)(=O)C(F)(F)F)c1C (centres unmarked) [Compound 1-765] | 90%

The molecules below were run on southern crabgrass in the same assay as above. Settings: 120 g/10a active ingredient, evaluated 14 days after treatment.
Format: in vivo
Method in brief: as §2

Structure (SMILES) | herbicidal rate, southern crabgrass
CCC(C)n1oc(=O)c(Cc2ccccc2N(C(=O)c2ccc(C)cc2)S(=O)(=O)C(F)(F)F)c1C (centres unmarked) [Compound 1-494] | 90%
COCC(C)n1oc(=O)c(Cc2ccccc2N(C(=O)Oc2ccccc2)S(=O)(=O)C(F)(F)F)c1C (centres unmarked) [Compound 1-765] | 90%

These molecules were tested on Echinochloa crus-galli (assay: Test Example 4: herbicidal effect test by treatment of leave and stem in dry field farming (seven days after seeding)). Settings: 120 g/10a active ingredient; emulsion sprayed seven days after seeding; evaluated 14 days after treatment.
Format: in vivo
Method in brief: (§3)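 Duplicate pots were scored 14 days post-spray by dry weight, herbicidal rate = {1 − treated/untreated average dry weight} × 100. The water-diluted emulsion, equivalent to 120 g active ingredient per 10 ares in 100 L, was applied seven days after sowing 20 seeds each into the upper 1 cm of alluvial soil.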

Structure (SMILES) | herbicidal effect (herbicidal rate), Echinochloa crus-galli
CCC(C)n1oc(=O)c(Cc2ccccc2N(C(=O)c2ccc(C)cc2)S(=O)(=O)C(F)(F)F)c1C (centres unmarked) [Compound 1-494] | 90%
COCC(C)n1oc(=O)c(Cc2ccccc2N(C(=O)Oc2ccccc2)S(=O)(=O)C(F)(F)F)c1C (centres unmarked) [Compound 1-765] | 90%

What follows are molecules tested on Amaranthus viridis in the same assay as above. Settings: 120 g/10a active ingredient; emulsion sprayed seven days after seeding; evaluated 14 days after treatment.
Format: in vivo
Method in brief: as §3

Structure (SMILES) | herbicidal effect (herbicidal rate), Amaranthus viridis
CCC(C)n1oc(=O)c(Cc2ccccc2N(C(=O)c2ccc(C)cc2)S(=O)(=O)C(F)(F)F)c1C (centres unmarked) [Compound 1-494] | 40%
COCC(C)n1oc(=O)c(Cc2ccccc2N(C(=O)Oc2ccccc2)S(=O)(=O)C(F)(F)F)c1C (centres unmarked) [Compound 1-765] | 40%

What follows are molecules tested on Chenopodium album in the same assay as above. Settings: 120 g/10a active ingredient; emulsion sprayed seven days after seeding; evaluated 14 days after treatment.
Format: in vivo
Method in brief: as §3

Structure (SMILES) | herbicidal effect (herbicidal rate), Chenopodium album
CCC(C)n1oc(=O)c(Cc2ccccc2N(C(=O)c2ccc(C)cc2)S(=O)(=O)C(F)(F)F)c1C (centres unmarked) [Compound 1-494] | 40%
COCC(C)n1oc(=O)c(Cc2ccccc2N(C(=O)Oc2ccccc2)S(=O)(=O)C(F)(F)F)c1C (centres unmarked) [Compound 1-765] | 40%

What follows are molecules tested on southern crabgrass in the same assay as above. Settings: 120 g/10a active ingredient; emulsion sprayed seven days after seeding; evaluated 14 days after treatment.
Format: in vivo
Method in brief: as §3

Structure (SMILES) | herbicidal effect (herbicidal rate), southern crabgrass
CCC(C)n1oc(=O)c(Cc2ccccc2N(C(=O)c2ccc(C)cc2)S(=O)(=O)C(F)(F)F)c1C (centres unmarked) [Compound 1-494] | 90%
COCC(C)n1oc(=O)c(Cc2ccccc2N(C(=O)Oc2ccccc2)S(=O)(=O)C(F)(F)F)c1C (centres unmarked) [Compound 1-765] | 90%

What follows are molecules tested on broad leaf weeds (Lindernia pyxidaria and Monochoria vaginalis) (assay: Test Example 2: herbicidal effect test by treatment during growing period in paddy rice cultivation (seven days after seeding)). Settings: Lindernia pyxidaria, 120 g/10a active ingredient, assessed 14 days after treatment, dry weight vs untreated area.
Format: in vivo
Method in brief: (§4)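 Seeds sown 0–1 cm deep in puddled, fertilised paddy soil with about 3 cm standing water in a glass greenhouse. Diluted emulsion dropped into the water seven days after seeding at 120 g active ingredient per 10 ares. Herbicidal rate (%) from mean dry weight vs untreated, duplicate, 14 days after treatment.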

Structure (SMILES) | Herbicidal rate (%) Lindernia pyxidaria
CCC(C)n1oc(=O)c(Cc2ccccc2N(C(=O)c2ccc(C)cc2)S(=O)(=O)C(F)(F)F)c1C (centres unmarked) [Compound 1-494] | 90%
COCC(C)n1oc(=O)c(Cc2ccccc2N(C(=O)Oc2ccccc2)S(=O)(=O)C(F)(F)F)c1C (centres unmarked) [Compound 1-765] | 90%

Same assay, conditions: Monochoria vaginalis, 120 g/10a active ingredient, assessed 14 days after treatment, dry weight vs untreated area

Structure (SMILES) | Herbicidal rate (%) Monochoria vaginalis
CCC(C)n1oc(=O)c(Cc2ccccc2N(C(=O)c2ccc(C)cc2)S(=O)(=O)C(F)(F)F)c1C (centres unmarked) [Compound 1-494] | 90%
COCC(C)n1oc(=O)c(Cc2ccccc2N(C(=O)Oc2ccccc2)S(=O)(=O)C(F)(F)F)c1C (centres unmarked) [Compound 1-765] | 90%

Each molecule was assayed on Echinochloa crus-galli in the same assay as above. Settings: 120 g/10a active ingredient, assessed 14 days after treatment, dry weight vs untreated area.
Format: in vivo
Method in brief: as §4

Structure (SMILES) | Herbicidal rate (%) Echinochloa crus-galli
CCC(C)n1oc(=O)c(Cc2ccccc2N(C(=O)c2ccc(C)cc2)S(=O)(=O)C(F)(F)F)c1C (centres unmarked) [Compound 1-494] | 90%
COCC(C)n1oc(=O)c(Cc2ccccc2N(C(=O)Oc2ccccc2)S(=O)(=O)C(F)(F)F)c1C (centres unmarked) [Compound 1-765] | 90%

Each molecule was assayed on Scirpus juncoides in the same assay as above. Settings: 120 g/10a active ingredient, assessed 14 days after treatment, dry weight vs untreated area.
Format: in vivo
Method in brief: as §4

Structure (SMILES) | Herbicidal rate (%) Scirpus juncoides
CCC(C)n1oc(=O)c(Cc2ccccc2N(C(=O)c2ccc(C)cc2)S(=O)(=O)C(F)(F)F)c1C (centres unmarked) [Compound 1-494] | 90%
COCC(C)n1oc(=O)c(Cc2ccccc2N(C(=O)Oc2ccccc2)S(=O)(=O)C(F)(F)F)c1C (centres unmarked) [Compound 1-765] | 90%
